Experimental data from patent US20160310501A1, “GABA[…] SIGMA RECEPTOR LIGANDS COMBINATIONS” (LABORATORIOS DEL DR. ESTEVE, S.A., priority 2013, published 2016).
Structures can show the parent of a compound that is named as a salt.

Test system: post-operative pain model in rats
Assay: Mechanical allodynia (von Frey filaments) in the post-operative pain model (plantar incision)
Format: in vivo
Protocol: The induction of anesthesia in rats was performed with 3% isofluran for veterinary use, employing an Ohmeda vaporizer and an anesthesia chamber. Anesthesia was kept during the surgical operation by a tube which directs the isofluran vapors to the animal's snout. Once the rats were anesthetized, they were laid down in a prone position and their right hind paws were cleaned out with alcohol.
Then, a skin incision in the hindpaw of about 10 mm was made by means of a scalpel, starting about 5 mm from the heel and extending toward the toes. Fascia was located and by means of curve scissors muscle was elevated and a longitudinal incision of about 5 mm was made, thus the muscle origin and insertion remained intact. The skin of the paw was stitched with a suturing stitch with breaded silk (3.0) and the wound was cleaned out with povidone.
The assessment was performed 30 minutes after the administration of product and always 4 hours after the plantar incision. The analysis was carried out evaluating the mechanical allodynia. It was tested using von Frey filaments: Animals were placed in methacrylate cylinders on an elevated surface, with metallic mesh floor perforated in order to apply the filaments. After an acclimation period of about 30 minutes within the cylinders, both hindpaws were stimulated (the injured and the non-injured paw, serving the latter as control), starting with the lowest force filament (0.4 g) and reaching a 15 g filament. The animal's response to pain was manifested by the withdrawal of the paw as a consequence of the painful stimulus caused by a filament.
(§1) The efficacy of the combined use of Pregabalin and compound 63.HCl was tested at different doses of compound 63.HCl (5, 10, 20, 40 and 80 mg/kg), while the Pregabalin dose remained constant (0.04 mg/kg). The administrations were performed 3.5 hours after surgery. The treated subjects were tested according to the mechanical allodynia protocol above (FIG. 1).
as §1, with “Gabapentin” for “Pregabalin”, “(10,” for “(5, 10,”, “(10” for “(0.04”, “2).” for “1).”

CC(C)C[C@H](CN)CC(=O)O [Pregabalin]
effect (analgesia, mechanical allodynia) (Pregabalin alone, sub-active dose 0.04 mg/kg, FIG. 1): non-significant effect

Cc1cc(OCCN2CCOCC2)nn1-c1ccc2ccccc2c1 [compound 63.HCl, 4-{2-[5-Methyl-1-(naphthalen-2-yl)-1H-pyrazol-3-yloxy]ethyl}morpholine hydrochloride]
ED50 (Rattus norvegicus, compound alone, 10, 20, 40 and 80 mg/kg, FIG. 2): 40 mg/kg
Emax (Rattus norvegicus, compound alone, dose dependent (5, 10, 20, 40 and 80 mg/kg), FIG. 1, 30 min after administration, 4 h after plantar incision, read-out: maximum effect): 43%

NCC1(CC(=O)O)CCCCC1 [Gabapentin]
effect (analgesia, mechanical allodynia) (Gabapentin alone at 10 mg/kg, non-significant, FIG. 2): 0±2%
